In series [1] the test system is E. coli (MTCC739). Kind of series: Agar well diffusion. The settings on record: E. coli (MTCC739); 50 µg/ml; ND = Not detected. In general terms: In agar diffusion tests the substance spreads into inoculated agar from a disc or well.
Series [2] deals with K. pneumoniae (MTCC 618). Kind of series: Agar well diffusion. The settings on record: 50 µg/ml, ND = Not detected.
The test system of series [3] is V. cholerae (MTCC 3906). Briefly: Broth microdilution MIC. Format: cell-based, Vibrio cholerae. The settings on record: V. cholerae (MTCC 3906); 18 h. Background: In broth dilution the organism is exposed to a series of concentrations in liquid medium.
Series [4] deals with S. aureus (MTCC737). Briefly: Agar well diffusion.
The subject of series [5] is P. aeruginosa (MTCC1934). Briefly: Agar well diffusion. The settings on record: P. aeruginosa (MTCC1934); 50 µg/ml; ND = Not detected.
The subject of series [6] is MRSA 831 (MRSA). Kind of series: Agar well diffusion.
Series [7] concerns MRSA 831. Kind of series: PI uptake assay. The class given is cell-based, methicillin-resistant S. aureus. The settings on record: derivatives 100 µg/ml, Polymyxin B 10 μM, 1 h. As for the experimental part:
(§1) MTCC 737 and MRSA 831 were grown, washed, and resuspended in 5 mM HEPES (pH 7.2), with the OD600 normalized to 0.5. […] Polymyxin B (10 μM), a membrane destabilizer, was used as a reference control. Drug-free and vehicle controls (cells treated with 0.5% DMSO) were included to analyze changes in fluorescence. After 1 h of treatment, cultures were centrifuged and stained with 5 µM PI dye for 15 min. Following staining, the cultures were washed twice to remove the extra dye, and fluorescence was recorded at 485 nm excitation and 525 nm emission wavelengths ([Zhou et al., 2020]).

For series [8], the system named is P. aeruginosa (MTCC1934). Kind of series: Broth microdilution MIC. The settings on record: P. aeruginosa (MTCC1934); 18 h.
Series [9] concerns MRSA 831. Briefly: Broth microdilution MIC. The settings on record: 18 h.
The test system of series [10] is MTCC 737. Briefly: Biofilm inhibition assay (crystal violet). The settings on record: S. aureus; at MIC or higher concentrations.
Procedure: After incubation, cells were washed with 1X PBS, and stained with 100 µl of Crystal Violet dye for 15 min, and rinsed again with 1X PBS.
The test system of series [11] is V. cholerae (MTCC 3906). Briefly: Agar well diffusion. Format: cell-based, Vibrio cholerae. The settings on record: V. cholerae (MTCC 3906); 50 µg/ml; ND = Not detected.
The test system of series [12] is K. pneumoniae (MTCC 618). Briefly: Broth microdilution MIC. The settings on record: K. pneumoniae (MTCC 618); 18 h.
Series [13] deals with B. subtilis (MTCC 441). Kind of series: Agar well diffusion. The settings on record: B. subtilis (MTCC 441); 50 µg/ml; ND = Not detected.
For series [14], the system named is MTCC 737. Briefly: PI uptake assay. The class given is cell-based, Staphylococcus aureus. The settings on record: derivatives 100 µg/ml, Polymyxin B 10 μM, 1 h. The procedure: as §1
The test system of series [15] is MRSA 831. Briefly: Neutropenic thigh infection model in mice. The settings on record: neutropenic BALB/c mice, MRSA 831 10^8 CFU/ml, oral 30 mg/kg, after 2 h and 24 h, vs untreated control.
Series [16] concerns E. coli (MTCC739). Briefly: Broth microdilution MIC. The settings on record: E. coli (MTCC739); 18 h.
For series [17], the system named is S. aureus (MTCC737). Briefly: Broth microdilution MIC.
Series [18] concerns 3T3-L1 cell line. Kind of series: Cytotoxicity (MTT assay). Format: cell-based, murine. The procedure: The murine fibroblast 3T3 L-1 cell line was procured from the National Centre for Cell Science (NCCS), Pune, India. The 3T3 L-1 cells were incubated at 37°C in an incubator maintained at 95% humidity and 5% CO2 in DMEM medium complemented with 10% fetal bovine serum (FBS) and 1% penicillin-streptomycin.
Synthesized derivatives were evaluated for cytotoxicity in a 3T3-L1 cell line using the MTT assay ([Ernawati et al., 2022]). 8000 cells/well were added in 96-well tissue culture flat-bottom microtiter plates for 24 h and then incubated with synthesized molecules (0-400 µg/ml) for 48 h at 37°C in a CO2 incubator. DMSO was used as solvent at a concentration of 0.1% to ensure that any observed effects were not attributable to the solvent itself, whereas 1 µg/ml doxorubicin was used in toxicity tests as a positive control. Subsequently, the media was replaced with MTT solution (100 µl) diluted in fresh media (0.5 mg/ml), and incubated for 4 h. After incubation, 100 µl of stop solution (50% DMF with 20% SDS) was added to dissolve the formazan crystals, and the plates were further incubated for 1 h. Absorbance was measured at 570 nm using BioTEK Synergy multi-plate reader ([Mosmann, 1983]; [Pratelli et al., 2023]). Percent cell viability was calculated using the following formula:
Cell viability (%)=Absorbance (Untreated - blank) - Absorbance (Test sample- blank)/Absorbance (Untreated - blank)×100

The subject of series [19] is MRSA 831. Kind of series: Biofilm imaging by confocal laser scanning microscopy (SYTO 9/PI). Format: cell-based, methicillin-resistant S. aureus. The settings on record: derivatives 100 µg/ml, 24 h. An excerpt: Untreated wells were used as a control. […] Using SYTO 9 and PI dyes. […] Two independent experiments were done in triplicate.
For series [20], the system named is MTCC 737. The description is as above. The settings on record: derivatives 100 µg/ml, 24 h.
For series [21], the system named is MRSA 831. Kind of series: Transmission electron microscopy. The settings on record: 100 µg/ml, 12 h.
Series [22] concerns MTCC 737 persister cells. Kind of series: Persister killing assay. The class given is cell-based, Staphylococcus aureus. The settings on record: S. aureus persisters. As for the experimental part: To evaluate the persister-killing activity of 2,2’-Bipy derivatives, MTCC 737 and MRSA 831 cells were grown overnight to the stationary phase at 37°C ([Kim et al., 2018b]). […] The bacterial densities of persisters were recorded at OD600 at hourly intervals from 0 to 6 h.

Series [23] deals with red blood cells. The settings on record: ref Chen et al., 2011; Papalia et al., 2021; cited from earlier work.
Series [24] deals with MTCC 737. Briefly: Transmission electron microscopy. The settings on record: S. aureus MTCC 737; 100 µg/ml, 12 h.
Series [25] has as its system MTCC 737. Briefly: Neutropenic thigh infection model in mice. The class given is in vivo, Staphylococcus aureus. The settings on record: neutropenic BALB/c mice, MTCC 737 10^6 CFU/ml, oral 30 mg/kg, 48 h, vs untreated group.
Series [26] concerns MRSA. The arrangement: method as in Lee et al., 2017. The settings on record: ref Lee et al., 2017; cited from earlier work.

≈ marks a conversion by molar mass, not a printed value.

As for `C=CCOc1cc(C(C)=NO)nc(-c2ccccn2)c1` [NPS1, N-[1-(4-allyloxy[2,2’-bipyridin]-6-yl)ethyldiene]hydroxylamine], the Zone of inhibition is recorded as 9.33 ± 0.58 mm in series [1]; 6.00 ± 3.46 mm in series [2]; 17.00 ± 2.65 mm in series [4] (S. aureus (MTCC737), 50 µg/ml, ND = Not detected); 7.67 ± 1.53 mm in [5]; 8.67 ± 0.58 mm in series [6] (MRSA 831, 50 µg/ml, ND = Not detected); 15.33 ± 1.53 mm in series [11]. In addition, the Zone of inhibition in series [13] stood at 5.33 ± 2.31 mm. Also, the Minimum inhibitory concentration in [3] is 12.5 µg/mL (≈ 46.4 µM); in [8] it was >100 µg/mL; in series [9] (MRSA 831), 50 µg/mL (≈ 186 µM); in series [12] it was >100 µg/mL; in [16], >100 µg/mL; in series [17] (S. aureus (MTCC737), 18 h) it was 50 µg/mL (≈ 186 µM). The “PI fluorescence (membrane integrity)” value in series [7] and in series [14] was “exhibited fluorescence indicating membrane instability” each time. In [10], the “Biofilm formation inhibition (in words)” value is given as “highly effective”. Moreover, the “Reduction in the bacterial load in thigh tissue” value in series [15] is on record as ~ 1.8 log10.
With `CCC(=NO)c1cc(OC)cc(-c2cc(OC)ccn2)n1` [NPS6, N-[1-(4,4’-dimethoxy[2,2’-bipyridin]-6-yl)propyldiene]hydroxylamine], the “IC50 (cytotoxicity, MTT)” value in [18] amounted to 168.1 µg/mL.
By zone of inhibition is commonly meant the extent of the growth-free halo in a diffusion test. Regarding `CN[C@H](CC(C)C)C(=O)N[C@H]1C(=O)N[C@@H](CC(N)=O)C(=O)N[C@H]2C(=O)N[C@H]3C(=O)N[C@H](C(=O)N[C@H](C(=O)O)c4cc(O)cc(O)c4-c4cc3ccc4O)[C@H](O)c3ccc(c(Cl)c3)Oc3cc2cc(c3O[C@@H]2O[C@H](CO)[C@@H](O)[C@H](O)[C@H]2O[C@H]2C[C@](C)(N)[C@H](O)[C@H](C)O2)Oc2ccc(cc2Cl)[C@H]1O` [Vancomycin, reference compound], the “Biofilm disruption (CLSM)” value in series [19] was “effective biofilm disruption and severe cell damage”; in series [20], “effective biofilm disruption and severe cell damage”. Besides, the zone of inhibition at 50 µg/mL was 14 mm in series [4] (Staphylococcus aureus, MTCC737) and 12 mm in series [6] (Staphylococcus aureus, MRSA). In addition, the MIC in [9] (Staphylococcus aureus, MRSA, read-out: Minimum inhibitory concentration) turned out to be 6.25 µg/mL (≈ 4.31 µM); in series [17] (Staphylococcus aureus, MTCC737, 18 h, read-out: Minimum inhibitory concentration), 6.25 µg/mL (≈ 4.31 µM). Moreover, the “Cell morphology (TEM)” value in series [21] and in series [24] was “distorted morphology” in each case. Further, the “Concentration showing similar activity on persister cell counts” value in series [22] is 100 µg/mL. The “Concentration up to which non-hemolytic” value in series [23] was “up to 32 µg/ml”. The “Reduction in the bacterial load in thigh tissue” value in [25] and in [15] was “approximately 1.9 log10” each time.
Turning to `COc1cc(-c2ccccn2)nc(CO)c1SC` [collismycin C], in [26], the MRSA biofilm formation entry was “inhibited MRSA biofilm formation”.

The values are drawn from paper PMC11802822, “Comprehensive safety and toxicity analysis of 2,2’-Bipyridine derivatives in combating MRSA biofilm formation and persistence” (Frontiers in Cellular and Infection Microbiology, 2025).
